Patent US9534008B2, “Small molecule compounds that control plant- and insect-pathogenic nematodes” (California Institute of Technology, priority 2011, dated 2017)

Experiments:
S. feltiae IJs = experiment: Dispersal assay, S. feltiae IJs; format: in vivo; conditions: physiologically relevant concentrations
Protocol: S. feltiae IJs were washed with MILLI-Q water three times and incubated in 6 cm petri dishes for […] with a small amount (4-5 ml) of MILLI-Q water. Nematodes were placed the following day on a 10.7 g/L agar with 1010 g/cm^2 gel strength (PhytoTechnology Lab. Shawnee Mission, Kans.). Nematode behavior was assayed on multiple plates with internal plate replicates to rule out the possibility that behavior was affected by plate composition. Approximately 300 IJs in 10 μl water were placed on an agar medium and the test compounds or extracts (1-2 μl) were placed into the nematode suspension. Upon absorption (˜15 minutes) of the liquid, the freely moving nematodes were video recorded for 5-10 minutes. Dispersal behavior is temperature and season dependent. During winter, the assay is effective at room temperature (22±1° C.). During summer, the assay requires a temperature controlled environment due to the effects on nematode behavior above 23° C.
For entomopathogenic nematodes (EPN), insect cadavers are known to promote dispersal behavior of the IJ stage (Shapiro-Ilan et al., J. Invertebr. Pathol. 83:270-72 (2003), which is hereby incorporated by reference in its entirety). An assay was therefore developed to identify compounds in consumed insect cadavers that promote dispersal. Approximately 300 IJs of S. feltiae in 10 μl of water were placed on an agar plate (FIG. 64B). […]

[1] = tested on: Steinernema riobrave, S. diaprepesi, S carpocapse; experiment: Ascaroside function (Table 12), Steinernema riobrave group; format: in vivo, Steinernema spp.
Protocol: (§1) Various ascarosides and ascaroside blends were administered to various nematodes described below (Table 12). […] A very strong result of affecting nematode behavior is designated in the table as “strong.”

C. elegans dauer larvae = experiment: Dispersal assay, C. elegans dauer; format: in vivo; conditions: for dispersing nematodes, normalized to percent of the positive control response: physiological concentration, with 0.25% E. coli (HB101), positive control dauer conditioned medium; for substitution for ascr#2 in the C. elegans dispersal blend: in vivo
Protocol: C. elegans dauer juveniles were washed with MILLI-Q water 3 times, placed into 6 cm petri dishes with a small amount of water, and rested overnight. Approximately 200-300 nematodes in 10 μl of water were placed on an agar plate, to which 2 μl of treatment was added. The liquid culture that produced 60% dauer animals was centrifuged, filtered with a 0.45 μm filter, and used as a positive control for dispersal. Thereafter, media were lyophilized and resuspended in MILLI-Q water 5 times. 2 μl to 10 μl of nematode suspension was used for the assay. As a negative control, 0.5% E. coli (HB101) was prepared in S-complete, lyophilized, and adjusted to the final volume of 0.25% E. coli in the assay.
Nematodes were quantified using Image J software (Image Processing and Analysis in Java, National Institutes of Health). The number of nematodes visualized and counted using Image J is illustrated in FIG. 63B. Nematodes inside the circle were subtracted manually from the total number of worms counted because of the location of their placement. Each treatment was replicated 9-11 times. The graph was normalized to the positive control, the dauer conditioned medium.

C. elegans males = experiment: Attraction assay (long-range, point source); conditions: in vivo
Protocol: 10 cm standard chemotaxis plates were prepared (Bargmann et al., Cell 74:515-27 (1993), which is hereby incorporated by reference in its entirety) and stored at 4° C. until the day before use. Standard 1 cm-diameter copper pipes were sectioned into 1 cm-tall segments to use for the holding chambers. The females/hermaphrodites were isolated overnight, washed 3 times in M9 buffer, and then allowed to wander on a plate pre-conditioned with 50 uL of 1000× streptomycin for 2 hours to kill any bacteria that might produce a false positive attractant. The nematodes were then washed 3 times, and the supernatant from the last wash was placed in a copper chamber, as the control, 1 cm from the border of the 10 cm plate. The nematodes were suspended in M9 within the copper chamber, 1 cm from the border opposite the control chamber. After 6 hours, they were subsequently removed and replaced with 3 μL of 1M sodium azide. 100 C. elegans adult males were isolated overnight, washed several times in ddH2O, and placed at the center of the agar plate. After several hours, males paralyzed within 2 cm of each region were scored. The Chemotaxis Index (Bargmann et al., Cell 74:515-27 (1993), which is hereby incorporated by reference in its entirety) was then used to score male chemotaxis to either point source.

C. elegans [2] = experiment: Ascaroside function (Table 12), C. elegans; format: in vivo, Caenorhabditis elegans; design: key to Attract Females/Herm. / Promote Dauer Formation / Attract Males: A very strong result of affecting nematode behavior is designated in the table as “strong.”
Protocol: as §1

S. feltiae = experiment: Ascaroside function (Table 12), S. feltiae; format: in vivo, Steinernema feltiae
Protocol: as §1

C. elegans [3] = conditions: from 1 μM concentration; cited from earlier work
C. elegans [4] = conditions: in vivo; cited from earlier work
[5] = tested on: several of the tested nematode species; experiment: Retention assay, across species; format: in vivo; conditions: 1 nM, 1 μM and 1 mM tested
Protocol: OP50 E. coli was grown on a standard 5 cm agar plate (made with standard Nematode Growth Medium). The bacterial lawn was 16 mm in diameter and was grown overnight at 20° C. before being used in trials. Two 4 mm spots (0.6 μL) were placed on opposite sides of the bacterial lawn (using a transparent template to guide spot placement), and several minutes elapsed for the liquid to settle in before placing nematodes down on the assay. Recording began immediately upon worm placement. 0.6 μL of the control was placed on one side of the lawn, and 0.6 μL of the experimental cue was placed on the other side of the lawn, changing the location of the cue throughout trials between left/right and top/bottom to avoid bias.
Nematodes were isolated by gender at the L4 stage the day before being used in trials as developed adults. Worms were evenly divided and placed at two points equidistant from the foci of the scoring region. Trials were recorded for 20 minutes, and frames were collected for analysis at 1 frame per second. Results were averaged from at least three different trials. For every nematode species in this study, a different total number of worms (using water in both scoring regions) was tested to determine the minimum number of worms necessary for consistent unbiased results over a 20 minute trial. The total number of worms used in the multiple species assays depended on that species' optimal parameters. 10 worms were used for P. redivivus males and females, 20 worms were used for C. elegans males and O. dolichuridae males, and 14 worms were used for S. glaseri males. The Automated Software was used to compare worm occupancy in each scoring region over time, and the Chemotaxis Index (Bargmann et al., Cell 74:515-27 (1993), which is hereby incorporated by reference in its entirety) was adapted to score preference or avoidance to each ascaroside.
A video camera attached to the microscope produced a digital video stream, which was then analyzed. The ratio of the time the average worm spent in each region of interest was calculated for every trial. For ease of implementation, all worms in a single experiment were assumed to be roughly the same size. Thus worm pixels were counted instead of whole worms, allowing fractions of a worm in the region of interest to be taken into account. It also eliminated the need for a shape-based worm identification algorithm, and allowed each frame to be analyzed independently. A band-pass filter was applied to each frame to eliminate the effect of uneven lighting and also accentuate the worms against the background. The worm was then identified after thresholding the filtered image. Throughout each experiment, the locations and sizes of the regions of interest were known. Through the filtering described above, it is known which pixels are occupied by worms and which ones are not. Thus, the ratio of worm-pixels to all pixels inside the region of interest can be calculated to produce the worm-occupancy ratio. This calculation was done for every frame, giving a plot output of worm-occupancy ratio vs. time for each region.

Panagrellus redivivus = experiment: Ascaroside function (Table 12), Panagrellus redivivus; format: in vivo
Protocol: as §1

[6] = tested on: Meloidogyne javanica, M. floridensis, M. incognita, M. hapla; experiment: Ascaroside function (Table 12), root-knot nematodes; format: in vivo, Meloidogyne spp.; conditions: Meloidogyne javanica, M. floridensis, M. incognita, M. hapla
Protocol: as §1

[7] = tested on: Heterorhabditis bacteriophora, H. zealandica, H. floridensis; experiment: Ascaroside function (Table 12), Heterorhabditis; format: in vivo, Heterorhabditis spp.; conditions: Heterorhabditis bacteriophora, H. zealandica, H. floridensis
Protocol: as §1

S. glaseri = experiment: Ascaroside function (Table 12), S. glaseri; format: in vivo
Protocol: as §1

SMILES	dispersal activity when tested alone (S. feltiae IJs)	Dispersal (of dauer larvae, infectious juveniles) [1]	dispersing nematodes, normalized to percent of the positive control response (C. elegans dauer larvae) [%]	C. elegans male chemotaxis to a point source (C. elegans males)	amount eliciting C. elegans male attraction from a distance (as low as) (C. elegans males) [attomol]	Attract Males (C. elegans [2])	Dispersal (of dauer larvae, infectious juveniles) (C. elegans [2])	Promote Dauer Formation (C. elegans [2])	Dispersal (of dauer larvae, infectious juveniles) (S. feltiae)	most active amount for attraction in C. elegans (C. elegans [3]) [pmol]	dauer-inducing activity (C. elegans [4])	substitution for ascr#2 in the C. elegans dispersal blend (C. elegans dauer larvae)	substitution for ascr#2 in the C. elegans dispersal blend (C. elegans dauer larvae; listed as Ascr#9)	preference for areas conditioned by ascaroside [5]	Attract Males (Panagrellus redivivus)	Dispersal (of dauer larvae, infectious juveniles) [6]	Repel Females/Herm. [6]	Dispersal (of dauer larvae, infectious juveniles) [7]	Attract Females/Herm. (Panagrellus redivivus)	Attract Males (S. glaseri)
C[C@H](CC(=O)O)O[C@@H]1O[C@@H](C)[C@H](O)C[C@H]1O [ascr#11]	did not have activity	ascr#11	–	–	–	–	–	–	–	–	–	–	–	–	–	–	–	–	–	–
CC(=O)CCC[C@@H](C)O[C@@H]1O[C@@H](C)[C@H](O)C[C@H]1O [ascr#2]	–	–	40	chemotax towards	≤ 500	ascr#2	ascr#2	([strong])	ascr#2	~1	promote dauer entry	–	–	–	–	–	–	–	–	–
C[C@H](CCC(=O)O)O[C@@H]1O[C@@H](C)[C@H](O)C[C@H]1O [ascr#9]	did not have activity	ascr#9	–	–	–	ascr#9	–	–	ascr#9	–	–	can replace	able to substitute	preferred	ascr#9	ascr#9	ascr#9	ascr#9	–	–
C[C@H](CC/C=C/C(=O)Nc1ccc(C(=O)O)cc1)O[C@@H]1O[C@@H](C)[C@H](O)C[C@H]1O [ascr#8]	–	–	50	not active	–	ascr#8	ascr#8	([strong])	ascr#8	–	promote dauer entry	–	–	preferred	ascr#8	–	–	–	ascr#8	ascr#8
